Measured values reported in US20040053817A1, “Delayed-release pharmaceutical formulations” (priority 2000, published 2004).

Tests used:
[1] = Water-solubility of human C-peptide; type: physicochemical; settings: observed when preparing formulations; phase-separation methods gave high losses of active substance
[2] = cited from earlier work

- water-solubility [1]: strong water-solubility
SMILES: CC(C)C[C@H](NC(=O)[C@H](C)NC(=O)[C@H](CC(C)C)NC(=O)[C@@H]1CCCN1C(=O)[C@H](CCC(N)=O)NC(=O)[C@H](CC(C)C)NC(=O)[C@H](CO)NC(=O)CNC(=O)[C@H](C)NC(=O)CNC(=O)[C@@H]1CCCN1C(=O)CNC(=O)CNC(=O)CNC(=O)[C@H](CC(C)C)NC(=O)[C@H](CCC(=O)O)NC(=O)[C@@H](NC(=O)[C@H](CCC(N)=O)NC(=O)CNC(=O)[C@@H](NC(=O)[C@H](CCC(N)=O)NC(=O)[C@H](CC(C)C)NC(=O)[C@H](CC(=O)O)NC(=O)[C@H](CCC(=O)O)NC(=O)[C@H](C)NC(=O)[C@@H](N)CCC(=O)O)C(C)C)C(C)C)C(=O)N[C@@H](CCC(=O)O)C(=O)NCC(=O)N[C@@H](CO)C(=O)N[C@@H](CC(C)C)C(=O)N[C@@H](CCC(N)=O)C(=O)O [C-peptide]
- half-life of plasma in humans [2]: about 40 minutes
